Patent publication US20080119530A1, “Method for treatment and prevention of ultraviolet light induced skin pathologies” (priority 2006, published 2008)

Experiments:
[1] = tested on: proliferating cell nuclear antigen (PCNA); assay: PCNA expression in skin; type: in vivo, mouse; settings: sham-irradiated skin and UV-exposed skin
Protocol: It has been discovered that Erbb2 modulates the expression of genes important in both proliferation and apoptosis following UV exposure in vivo (Example 9). Accordingly, the influence of Erbb2 on both apoptosis and cell proliferation was assessed in order to determine the mechanisms of Erbb2's effect on hyperplasia in the skin after UV irradiation. Erbb2 suppresses UV-induced apoptosis in vitro, although the effect was slight (32). The percentage of TUNEL-positive basal cells was increased at 24 h after UV in vehicle-treated skin, consistent with previous observations in this animal model (13). […] Erbb2 reportedly suppresses keratinocyte differentiation (11), a process leading to keratinocyte death that is mechanistically and morphologically distinct from apoptosis. […] Mean proliferating cell nuclear antigen (PCNA) expression, a marker of cell proliferation, was less in Erbb2 inhibitor treated sham-irradiated skin and in UV-exposed skin when compared to the vehicle-treated controls.

primary keratinocytes = assay: BrdU incorporation (DNA synthesis) in cultured primary keratinocytes; type: cell-based, mouse
Excerpt: (§1) Cell culture. […] Keratinocytes were transfected with Erbb2-targeted siRNA (32), Stealth RNAi Negative Control LO GC (Invitrogen, Carlsbad, Calif.), Cy3-conjugated Label IT RNAi Delivery Control (Mirus, Madison, Wis.) or sham transfection with TransIT-siQUEST Transfection Reagent (Mirus, Madison, Wis.). Plasmids with Cdc25a (Hassepass et al. 2003a) and EGFP (enhanced green fluorescent protein) cDNA were cotransfected with Lipofectamine Transfection Reagent (Invitrogen, Carlsbad, Calif.). Transfection efficiency was quantified by determining the proportion of the cells that incorporated the fluorescent Cy3-conjugated siRNA or GFP one day post-transfection. […]
Cell cycle. […] For in vitro analysis, keratinocytes were resuspended, fixed in 70% ethanol, resuspended in Vindelov's solution (3.5 mM Tris base, pH 7.6, 10 mM NaCl, 10 μg/ml Ribonuclease A, 75 μg/ml propidium iodide, 1.01l/ml IPEGAL), and analyzed on a FACSCalibur flow cytometer (Becton Dickinson, Franklin Lakes, N.J.). Cell cycle distributions were determined using ModFit LT 3.1 software (Verity Software House, Topsham, Me.). […]
Proliferation and apoptosis assays. Proliferation, survival and apoptosis were quantified in three replicate experiments. BrdU uptake was measured by a chemiluminescenit BrdU Cell Proliferation ELISA (Roche, Germany). […] MUH fluorescence from wells lacking cells was subtracted from all samples. […]

EGFR = assay: UV-induced phosphorylation of EGFR; type: cell-based, mouse
Excerpt: (§2) For some experiments, the epidermis was separated from the skin by the heat shock method before homogenization. Keratinocytes were lysed in the same buffer. Membranes were immunoblotted with antibodies recognizing Erbb2, phospho-Erbb2 (Tyr^1248), EGFR, phospho-EGFR (Tyr^992), phospho-EGFR (Tyr^1173), phosphotyrosine, and Tall (Calbiochem, San Diego, Calif.). Binding of horseradish peroxidase-conjugated secondary antibodies (Cell Signaling, Beverly, Mass.) was visualized using chemiluminescent reagents (Pierce, Rockford, Ill.) and autoradiography. Densitometry was performed using IDScan software (Scanalytics, Fairfax, Va.).
Several methods were developed to regulate Erbb2 expression and activity both in vitro and in vivo.

Erbb2 = Erbb2 expression in keratinocytes (immunoblot); type: cell-based, mouse; settings: cultured keratinocytes, AG825
Excerpt: as §2, §1

[2] = molecular target: insulin-like growth factor I receptor kinase (Homo sapiens, UniProt P08069)
insulin-like growth factor I receptor kinase, sequence (P08069 31-1367): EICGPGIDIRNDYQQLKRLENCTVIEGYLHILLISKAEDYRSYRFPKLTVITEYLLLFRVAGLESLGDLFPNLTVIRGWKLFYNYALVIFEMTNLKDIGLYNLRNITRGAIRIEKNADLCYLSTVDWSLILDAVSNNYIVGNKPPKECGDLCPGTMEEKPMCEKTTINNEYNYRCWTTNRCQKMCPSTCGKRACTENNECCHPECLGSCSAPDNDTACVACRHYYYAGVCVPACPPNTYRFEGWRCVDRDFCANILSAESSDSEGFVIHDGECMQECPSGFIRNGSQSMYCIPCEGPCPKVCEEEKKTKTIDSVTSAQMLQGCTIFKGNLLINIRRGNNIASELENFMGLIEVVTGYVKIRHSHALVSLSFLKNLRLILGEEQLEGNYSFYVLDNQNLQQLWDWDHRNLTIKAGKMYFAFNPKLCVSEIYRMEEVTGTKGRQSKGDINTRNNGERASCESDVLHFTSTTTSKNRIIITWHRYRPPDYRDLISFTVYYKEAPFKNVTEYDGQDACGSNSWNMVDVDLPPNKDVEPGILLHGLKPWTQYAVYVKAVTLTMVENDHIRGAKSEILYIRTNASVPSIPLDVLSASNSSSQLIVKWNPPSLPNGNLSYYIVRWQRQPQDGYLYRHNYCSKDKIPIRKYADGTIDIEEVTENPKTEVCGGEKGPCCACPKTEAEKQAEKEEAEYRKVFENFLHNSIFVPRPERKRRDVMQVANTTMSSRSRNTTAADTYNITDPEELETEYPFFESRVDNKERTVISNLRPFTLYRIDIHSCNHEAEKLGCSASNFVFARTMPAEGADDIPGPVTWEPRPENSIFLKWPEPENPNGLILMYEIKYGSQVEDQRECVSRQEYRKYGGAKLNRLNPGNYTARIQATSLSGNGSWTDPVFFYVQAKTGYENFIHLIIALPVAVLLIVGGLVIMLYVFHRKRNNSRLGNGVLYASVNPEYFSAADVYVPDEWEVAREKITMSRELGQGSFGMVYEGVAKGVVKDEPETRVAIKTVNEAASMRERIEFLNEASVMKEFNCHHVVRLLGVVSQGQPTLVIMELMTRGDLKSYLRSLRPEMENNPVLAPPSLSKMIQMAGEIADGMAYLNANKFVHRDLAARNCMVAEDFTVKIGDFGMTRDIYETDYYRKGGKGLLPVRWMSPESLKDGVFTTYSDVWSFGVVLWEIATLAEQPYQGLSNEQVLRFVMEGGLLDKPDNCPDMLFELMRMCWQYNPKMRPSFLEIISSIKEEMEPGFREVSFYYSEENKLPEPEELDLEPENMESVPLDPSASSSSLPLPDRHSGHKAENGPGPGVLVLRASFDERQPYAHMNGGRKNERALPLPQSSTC

For `COc1cc(/C=C(\C#N)C(N)=O)cc(CSc2nc3ccccc3s2)c1O` [AG825], the “mean PCNA expression vs vehicle-treated controls” value [1] was “less”, the BrdU incorporation (primary keratinocytes; by 12 h after UV irradiation) was “reduced to nearly zero” and the BrdU incorporation (primary keratinocytes; sham-irradiated keratinocytes) was “significantly reduced”. The “EGFR phosphorylation at Tyr1173 after UV” value (EGFR) was “did not block”, the “UV-induced phosphorylation of EGFR-Tyr992” value (EGFR) was “blocked” and the “expression levels of Erbb2” value (Erbb2) was “without altering”. For the same compound, the “fold higher IC50 for insulin-like growth factor I receptor kinase than for Erbb2” value [2] was “more than 100 fold”.
